Here are results for two compounds from patent US20060262149A1, “Ink jet ink and recording material” (priority 2005, published 2006).

Experiment [1] can be described thus: Light fastness of magenta ink jet prints on stabilizer-treated Konica QP paper, 100% print density (Example 5). The note with it: HP DeskJet 970 Cxi, stabilizer 650-700 mg/m^2 on Konica QP paper, office fluorescent lighting, None = 25.73. As for the experimental part:
A resin-coated paper impregnated with inorganic adsorbent particles (Konica QP Photoglossy ink jet paper, Konica Corp.) is purchased. On the ink-receiving layer, a 0.8 wt % methanol solution of the instant compounds is applied in an amount to achieve 650-700 mg/m^2. The paper is allowed to dry under ambient temperature and pressure for 24 hours.
Separately, test patterns (magenta) are printed on the treated sheets using a Hewlett Packard DeskJet 970 Cxi printer at 100% print density. The obtained prints are left to dry at ambient temperature and pressure for 24 hours.
(§1) Color densities and CIEL*a*b coordinates before and after exposure are measured using X-Rite 938 Spectrodensitometer. Exposures are carried out using normal office fluorescent lighting. The change in color is given by Delta E (DE) which is calculated by: DE=[(DL*)^2+(Da*)^2+(Db*)^2]^1/2

Experiment [2] is described as follows: Light fastness of cyan, magenta and yellow ink jet prints on stabilizer-treated Konica QP paper, 50% print density (Example 6). The note with it: HP DeskJet 970 Cxi, stabilizer 650-700 mg/m^2, office fluorescent lighting; for DE for magenta after 4 weeks: None = 20.16; for DE for yellow after 4 weeks: None = 4.68. As for the experimental part:
as §1
A resin-coated paper impregnated with inorganic adsorbent particles (Konica QP Photoglossy ink jet paper, Konica Corp.) is purchased. On the ink-receiving layer, a 0.8 wt % methanol solution of the instant compounds is applied in an amount to achieve 650-700 mg/m^2. The paper is allowed to dry under ambient temperature and pressure for 24 hours. Separately, test patterns (cyan, magenta and yellow) are printed on the treated sheets using a Hewlett Packard DeskJet 970 Cxi printer at 50% print density. The obtained prints are left to dry at ambient temperature and pressure for 24 hours.
Color densities and CIEL*a*b coordinates before and after exposure are measured using X-Rite 938 Spectrodensitometer. Exposures are carried out using normal office fluorescent lighting.

For `CC(C)(O)CON1C(C)(C)CC(O)CC1(C)C` [Instant Example 1], the entries for the “DE for magenta after 4 weeks” value in experiment [1] and in experiment [2] were 18.39 and 17.82, respectively. Also, the “DE for yellow after 4 weeks” value in experiment [2] was determined as 1.81.

On to `CC(C)(O)CON1C(C)(C)CC(O)CC1(C)C` [Instant Example 2], for which, in experiment [1], the “DE for magenta after 4 weeks” value amounted to 20.89. Moreover, the “DE for cyan after 4 weeks” value in experiment [2] (cyan, None = 7.29) is recorded as 6.64. Moreover, in experiment [2], the “DE for magenta after 4 weeks” value turned out to be 16.71 and the “DE for yellow after 4 weeks” value came out at 2.48.
